Columns and labels:
Rattus norvegicus [1] = assay: Antidiabetic activity in Sprague-Dawley albino rat assessed as inhibition of blood glucose level at 300 mg/kg, ip administered 10 mins prior to oral glucose challenge measured after 10 mins by glucometer relative to control; type: functional
HEK293 = assay: Cytotoxicity against HEK293 cells after 24 hrs by MTT assay; type: cell-based; conditions: Homo sapiens, HEK293, 24 h
A549 = assay: Cytotoxicity against human A549 cells after 24 hrs by MTT assay; type: cell-based; conditions: A549, 24 h
Rattus norvegicus [2] = assay: Antidiabetic activity in Sprague-Dawley albino rat assessed as inhibition of blood glucose level at 50 mg/kg, ip administered 10 mins prior to oral glucose challenge measured after 10 mins by glucometer relative to control; type: functional
[3] = molecular target: T1, Tyrosine-protein phosphatase non-receptor type 1 (Rattus norvegicus) (UniProt P20417); assay: (§1) Inhibition of PTP1B in rat liver homogenates using p-nitro phenyl phosphate as substrate preincubated for 30 mins followed by substrate addition measured after 10 mins; type: tissue-based
T1 sequence (whole entry): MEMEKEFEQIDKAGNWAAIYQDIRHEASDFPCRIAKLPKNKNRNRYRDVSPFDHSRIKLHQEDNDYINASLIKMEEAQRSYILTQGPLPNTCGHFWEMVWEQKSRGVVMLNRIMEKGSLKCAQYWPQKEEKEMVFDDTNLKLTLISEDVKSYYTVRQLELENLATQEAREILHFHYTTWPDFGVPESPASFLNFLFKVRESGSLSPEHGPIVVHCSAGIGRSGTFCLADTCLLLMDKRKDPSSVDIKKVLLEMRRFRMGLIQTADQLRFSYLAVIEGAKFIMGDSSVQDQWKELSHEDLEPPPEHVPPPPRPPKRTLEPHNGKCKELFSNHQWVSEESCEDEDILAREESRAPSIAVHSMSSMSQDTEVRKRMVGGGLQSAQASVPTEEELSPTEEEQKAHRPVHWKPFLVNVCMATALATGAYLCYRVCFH

[4] = molecular target: T2, Tyrosine-protein phosphatase non-receptor type 1 (Rattus norvegicus, UniProt P20417); assay: as §1; type: tissue-based
T2 sequence (P20417 whole entry): T1 sequence (whole entry)

[5] = molecular target: T1, Tyrosine-protein phosphatase non-receptor type 1 (Rattus norvegicus); assay: (§2) Inhibition of PTP1B in rat liver homogenates using p-nitro phenyl phosphate as substrate at 10 uM preincubated for 30 mins followed by substrate addition measured after 10 mins relative to control; type: tissue-based
[6] = molecular target: Tyrosine-protein phosphatase non-receptor type 1 (Rattus norvegicus) (UniProt P20417); assay: as §2; type: tissue-based; remark: listed apart in the source

| Compound | inhibition in vivo at 300 mg/kg (Rattus norvegicus [1]) [%] | IC50 (HEK293) [µM] | IC50 (A549) [µM] | inhibition in vivo at 50 mg/kg (Rattus norvegicus [2]) [%] | inhibition [3] | IC50 [4] [µM] | inhibition [5] [%] | inhibition [6] [%] |
| --- | --- | --- | --- | --- | --- | --- | --- | --- |
| CN(C)C(=N)NC(=N)N [METFORMIN] | 57.1 |  |  |  |  |  |  |  |
| FC(F)(F)c1ccc(-n2cc(COc3ccc(-c4nc5c(ccc6ccccc65)o4)cc3)nn2)cc1 |  | > 1000 | > 1000 | 78.6 | Dose-dependent effect | 8.61 | 68.3 |  |
| Cc1ccc(-n2cc(COc3ccc(-c4nc5c(ccc6ccccc65)o4)cc3)nn2)cc1 |  | > 1000 | > 1000 | 62.6 | Dose-dependent effect | 20.4 | 41.6 |  |
| SODIUM ORTHOVANAD |  |  |  |  |  |  |  | 60.7 |
| COc1cccc2c1C(=O)c1c(O)c3c(c(O)c1C2=O)C[C@@](O)(C(=O)CO)C[C@@H]3O[C@H]1C[C@H](N)[C@H](O)[C@H](C)O1 [DOXORUBICIN] |  | 1.01 | 3.98 |  |  |  |  |  |

Source: ChEMBL document CHEMBL2429839, “Synthesis and characterization of 2-(4-((1-alkyl or aryl-1H-1,2,3-triazol-4-yl)methoxy)phenyl)naphtho[1,2-d]oxazoles for protein tyrosine phosphatase 1B inhibitory activity” (Med Chem Res, 2013)
